These results are taken from US20110039763A1, “TARGETED ANTIMICROBIAL MOIETIES” (C3 JIAN, INC., priority 2009, published 2011).

The test system of experiment [1] is microorganisms. In words: Targeting peptide binding to target microorganisms (Tables 3, 10, 12). The conditions noted are these: microorganism(s) the targeting peptide binds, preferably 1x PBS.
Experiment [2] has as its system microorganisms. In words: Morphology, biofilm and growth disrupting peptides (Table 5). Format: cell-based. Details: key: A: Peptide aggregates; B: Less hyphal formation; Clumps; Diffuse clumps and small polyps; F: Diffuse growth; H: Thin; I: Growth inhibition; Microcolony formation; Rippled; Small polyps; Thick; W: Halo formation on top, microlonies on bottom. The source says:
In certain embodiments peptides that induce alterations in phenotype or other biological activities can also be used as antimicrobial effector moieties.

Setting [3] is: binding in aqueous buffers varied with peptide solubility.
[4] abbreviates: binding in aqueous buffers that varied with peptide solubility.

Entries after “also recorded” stand apart in the source; their conditions may differ. Square brackets hold non-standard residues; d marks the D form. Ends that are not written are not given here. dOrn = NCCC[C@@H](N)C(=O)O; Orn = NCCC[C@H](N)C(=O)O

For the substance “PF-643 (chain 1 VRCRL; chain 2 VRCRL; Peptide with targeting and/or antimicrobial activity)”, the “Target(s)” value in the experiment on microorganisms [1] (setting [3]) is “Mycobacteria spp”. Further, the “Organism, effect” value with microorganisms [2] (E. faecalis) was “E. faecalis (R)”; in the experiment with microorganisms [2] (MRSA), “MRSA (C)”; in the experiment on microorganisms [2] (S. pneumoniae), “S. pneumoniae (R)”. In the case of “PF-644 (chain 1 TSGLIIGENGLNGL; chain 2 TSGLIIGENGLNGL; Peptide with targeting and/or antimicrobial activity)”, the “Target(s)” value in the experiment on microorganisms [1] (setting [3]) was “Mycobacteria spp”. Besides, in the experiment on microorganisms [2] (S. pneumoniae), the “Organism, effect” value is recorded as “S. pneumoniae (H)”. “PF-645 (chain 1 SNSVQQG; chain 2 SNSVQQG; Peptide with targeting and/or antimicrobial activity)”: the “Target(s)” value with microorganisms [1] (setting [3]) is “Mycobacteria spp”. The “Organism, effect” value is listed as “C. albicans (B)” in the experiment on microorganisms [2] (C. albicans) and “S. pneumoniae (I)” in the experiment on microorganisms [2] (S. pneumoniae).

As to “PF-646 (chain 1 APASPGRRPG; chain 2 APASPGRRPG; Peptide with targeting and/or antimicrobial activity)”, the “Target(s)” value in the experiment on microorganisms [1] (setting [3]) was “Mycobacteria spp”. Moreover, the “Organism, effect” value with microorganisms [2] (C. albicans) was “C. albicans (B)”; in the experiment with microorganisms [2] (S. pneumoniae) it was “S. pneumoniae (H)”.

For the substance “PF-647 (chain 1 GTFLGQKCAAATAS; chain 2 GTFLGQKCAAATAS; Peptide with targeting and/or antimicrobial activity)”, the “Target(s)” value in the experiment with microorganisms [1] (setting [3]) is “Mycobacteria spp”. Besides, the “Organism, effect” value is listed as “C. albicans (B)” in the experiment on microorganisms [2] (C. albicans) and “S. pneumoniae (R)” in the experiment on microorganisms [2] (S. pneumoniae).

On to “PF-649 (chain 1 CPRYPFVDVGPAGPWRARWRVGS; chain 2 CPRYPFVDVGPAGPWRARWRVGS; Peptide with targeting and/or antimicrobial activity)”, for which the “Target(s)” value with microorganisms [1] (setting [3]) was “Mycobacteria spp”. Further, in the experiment on microorganisms [2] (E. faecalis), the “Organism, effect” value is “E. faecalis (R)”. Regarding “PF-651 (chain 1 PRWPTGAGRHR; chain 2 PRWPTGAGRHR; Peptide with targeting and/or antimicrobial activity)”, in the experiment with microorganisms [1] (setting [3]), the “Target(s)” value is recorded as “Mycobacteria spp”. In addition, the “Organism, effect” value in the experiment on microorganisms [2] (S. pneumoniae) is listed as “S. pneumoniae (H)”. As for “PF-652 (chain 1 FLAPARPDLQAQRQALAQ; chain 2 FLAPARPDLQAQRQALAQ; Peptide with targeting and/or antimicrobial activity)”, in the experiment with microorganisms [1] (setting [3]), the “Target(s)” value was “Mycobacteria spp”. Also, the “Organism, effect” value in the experiment with microorganisms [2] (S. pneumoniae) was “S. pneumoniae (A)”. Taken in the same sequence, the figures for “PF-653 (chain 1 QSVHPLPAETPVADVI; chain 2 QSVHPLPAETPVADVI; Peptide with targeting and/or antimicrobial activity)” were “Mycobacteria spp” and “S. pneumoniae (H)”. For the substance “PF-654 (chain 1 LSGRLAGRR; chain 2 LSGRLAGRR; Peptide with targeting and/or antimicrobial activity)”, in the experiment with microorganisms [1] (setting [3]), the “Target(s)” value is recorded as “Mycobacteria spp”. The “Organism, effect” value is given as “C. albicans (B)” in the experiment with microorganisms [2] (C. albicans), “MRSA (R)” in the experiment with microorganisms [2] (MRSA) and “S. pneumoniae (A)” with microorganisms [2] (S. pneumoniae). Take “PF-656 (chain 1 RGMFVPFHDVDCVQ; chain 2 RGMFVPFHDVDCVQ; Peptide with targeting and/or antimicrobial activity)”: in the experiment on microorganisms [1] (setting [3]), the “Target(s)” value is listed as “Mycobacteria spp”. In addition, the “Organism, effect” value in the experiment with microorganisms [2] (MRSA) was “MRSA (R)”.

On to “PF-657 (chain 1 YVANYTITQFGRDFDDRLAVAIHFA; chain 2 YVANYTITQFGRDFDDRLAVAIHFA; Peptide with targeting and/or antimicrobial activity)”, for which the “Target(s)” value in the experiment with microorganisms [1] (setting [3]) is given as “Mycobacteria spp”. In addition, the “Organism, effect” value is recorded as “C. jeikeium (D)” in the experiment with microorganisms [2] (C. jeikeium); “E. faecalis (D)” in the experiment on microorganisms [2] (E. faecalis); “MRSA (D)” in the experiment on microorganisms [2] (MRSA); “S. epidermidis (C)” in the experiment with microorganisms [2] (S. epidermidis); “S. pneumoniae (H)” in the experiment with microorganisms [2] (S. pneumoniae).

With “PF-658 (chain 1 PTTPPPTTPPEIPTGGTVIST; chain 2 PTTPPPTTPPEIPTGGTVIST; Peptide with targeting and/or antimicrobial activity)”, the “Target(s)” value in the experiment on microorganisms [1] (setting [3]) was “Mycobacteria spp”. For the same substance, the “Organism, effect” value with microorganisms [2] (MRSA) was “MRSA (R)”; with microorganisms [2] (S. pneumoniae), “S. pneumoniae (H)”. On to “PF-659 (chain 1 TVIST; chain 2 TVIST; Peptide with targeting and/or antimicrobial activity)”, for which the “Target(s)” value with microorganisms [1] (setting [3]) is “Mycobacteria spp”. Moreover, the “Organism, effect” value in the experiment on microorganisms [2] (B. subtilis) is recorded as “B. subtilis (H)”; in the experiment with microorganisms [2] (MRSA) it was “MRSA (R)”; in the experiment with microorganisms [2] (S. epidermidis) it was “S. epidermidis (M)”; in the experiment with microorganisms [2] (S. pneumoniae), “S. pneumoniae (C)”.

On to “PF-660 (chain 1 TDPQATAAPRRRTSPR; chain 2 TDPQATAAPRRRTSPR; Peptide with targeting and/or antimicrobial activity)”, for which the “Target(s)” value with microorganisms [1] (setting [3]) is given as “Mycobacteria spp”. The “Organism, effect” value in the experiment on microorganisms [2] (S. pneumoniae) is listed as “S. pneumoniae (H)”. In the case of “PF-661 (chain 1 PDEDIRRRAILPPAGPCRPMSPE; chain 2 PDEDIRRRAILPPAGPCRPMSPE; Peptide with targeting and/or antimicrobial activity)”, the “Target(s)” value in the experiment with microorganisms [1] (setting [3]) was “Mycobacteria spp”. The “Organism, effect” value with microorganisms [2] (MRSA) is “MRSA (R)”.

With “PF-662 (chain 1 GKQSRAHGPVASRREFRRKSG; chain 2 GKQSRAHGPVASRREFRRKSG; Peptide with targeting and/or antimicrobial activity)”, the “Target(s)” value with microorganisms [1] (setting [3]) is “Mycobacteria spp”. In addition, the “Organism, effect” value in the experiment with microorganisms [2] (S. pneumoniae) is listed as “S. pneumoniae (A)”. Taken in the same sequence, the figures for “PF-663 (chain 1 ATLIPRKA; chain 2 ATLIPRKA; Peptide with targeting and/or antimicrobial activity)” were “Mycobacteria spp” and “S. pneumoniae (A)”. For “PF-665 (chain 1 VLRVATAVGEVPTGL; chain 2 VLRVATAVGEVPTGL; Peptide with targeting and/or antimicrobial activity)” the same measures were “Mycobacteria spp” and “S. pneumoniae (H)”. For “PF-666 (chain 1 PNRRSRPR; chain 2 PNRRSRPR; Peptide with targeting and/or antimicrobial activity)” the same measures were “Mycobacteria spp” and “S. pneumoniae (A)”. Regarding “PF-C285 (FTIIELKKQKIKHGENNKKTAHPLNEPFCARA; Peptide with targeting and/or antimicrobial activity)”, the “Target(s)” value in the experiment on microorganisms [1] (setting [3]) is listed as “A. naeslundii; also recorded: F. nucleatum; also recorded: P. gingivalis; also recorded: S. mutans; also recorded: T. denticola”. As to “PF-S004 (VLLNIFRTLLEFFSPSNAPGAEDVPLPDTQA; Peptide with targeting and/or antimicrobial activity)”, the “Target(s)” value in the experiment with microorganisms [1] (setting [3]) is “S. epidermidis and MRSA and C. jeikeium”. Take “PF-S007 (VVAGVVLLTALAVGSKRKEKKQIKEIQRLLAATR; Peptide with targeting and/or antimicrobial activity)”: in the experiment on microorganisms [1] (setting [3]), the “Target(s)” value was “S. epidermidis and MRSA”. Same read-out and setting: to “PF-S015 (IENLERGARRPP; Peptide with targeting and/or antimicrobial activity)” belongs “S. epidermidis and MRSA and C. jeikeium”; to “PF-S018 (GMPQIPRLRI; Peptide with targeting and/or antimicrobial activity)”, “S. epidermidis and M. luteus and C. albicans and MRSA and E. faecalis and C. jeikeium and C. jejuni”.

In the case of “PF-S023 (MAEDERRALKRRTNRGRTRTRKRITV; Peptide with targeting and/or antimicrobial activity)”, the “Target(s)” value in the experiment on microorganisms [1] (setting [3]) was “S. epidermidis and MRSA”. As to “PF-S024 (SKRGRKRKDRRKKKANHGKRPNS; Peptide with targeting and/or antimicrobial activity)”, the “Target(s)” value with microorganisms [1] (setting [4]) is “Corynebacteria”. For “PF-S026 (TELKYNGEEYLLLTQRDILAVIEK; Peptide with targeting and/or antimicrobial activity)”, in the experiment with microorganisms [1] (setting [3]), the “Target(s)” value is “S. epidermidis and MRSA and C. jeikeium”.

Take “PF-S029 (TSDTQSQSPWLFDNADIVNIYPVQLMHSSDND; Peptide with targeting and/or antimicrobial activity)”: in the experiment on microorganisms [1] (setting [3]), the “Target(s)” value is recorded as “M. luteus; also recorded: P. mirabilis; also recorded: E. coli; also recorded: C. albicans; also recorded: C. jeikeium; also recorded: C. jejuni”.

Take “Py Pf 12 ([dS]KG[Orn][dS]SGK[dOrn]ES; not fully specified (bridges))”: in the experiment with microorganisms [1] (setting [4]), the “Target(s)” value is reported as “P. fluorescens”. Still for that read-out and setting: next, “TT-305 (ARNALNMRDVPVDAAIIGIIDGMDEE; Peptide with targeting and/or antimicrobial activity)”: “F. nucleatum”. Same read-out and setting: next, “TT-306 (KILNEAEGKLLKVIEKNGEIDIEEI; Peptide with targeting and/or antimicrobial activity)”: “F. nucleatum”; “TT-307 (NGDKKAKEELDKWDEVIKELNIQF; Peptide with targeting and/or antimicrobial activity)”: “F. nucleatum”; “TT-308 (GLVIIPNLIALIILFSQVRQQTKDYFSNPKLSSR; Peptide with targeting and/or antimicrobial activity)”: “F. nucleatum”. The same measure, in the same setting: next, “TT-309 (EPLPLTKYDKKDTEMKKVFKEILAGKVGYEKEEE; Peptide with targeting and/or antimicrobial activity)”: “F. nucleatum”; “TT-310 (TKLKKNNKLLSAKKENTLHTKDK; Peptide with targeting and/or antimicrobial activity)”: “F. nucleatum”.

As to “TT-311 (AIFDAMHNL; Peptide with targeting and/or antimicrobial activity)”, the “Target(s)” value with microorganisms [1] (setting [4]) is recorded as “S. mutans; also recorded: S. sobrinus”.
